# Laboratory results taken from PubChem BioAssay AID1963980 (Molecular Pharmacology Branch, DTP, NCI, 2024).
# Test system: 475296-252-R-J1-PDC spheroid viability
# Assay: Anticancer human tumor 475296-252-R-J1-PDC patient-derived rectal carcinoma cell line growth inhibition [PI3K]
# Settings: spheroids with HUVEC and MSC; for IC50: curve of first compound; for viability, T/C: stronger effect = lower value
# In short: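 Targeted small molecules plus PI3K inhibitors, half-log dose series from Cmax (default top 10 microM), were applied to heterotypic spheroids of cancer cells with HUVEC and MSCs. Viability indicated growth inhibition.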
# 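Also: spheroids exposed to agents for seven days before readout.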
compound,measurement,setting,value
CC1(C)CCC(CN2CCN(c3ccc(C(=O)NS(=O)(=O)c4ccc(NCC5CCOCC5)c([N+](=O)[O-])c4)c(Oc4cnc5[nH]ccc5c4)c3)CC2)=C(c2ccc(Cl)cc2)C1 + COc1c(OCCCN2CCOCC2)ccc2c3n(c(=NC(=O)c4cnc(N)nc4)nc12)CCN3,IC50,second compound 0.00316 µM,> 10 µM
same,IC50,second compound 0.01 µM,> 10 µM
same,IC50,second compound 0.0316 µM,> 10 µM
same,IC50,second compound 0.1 µM,> 10 µM
same,IC50,second compound 0.316 µM,> 10 µM
same,IC50,second compound 1 µM,5.62 µM
same,"viability, T/C","second compound 0.00316 µM, first compound 0.0316 µM",107%
same,"viability, T/C","second compound 0.00316 µM, first compound 0.1 µM",85.6%
same,"viability, T/C","second compound 0.00316 µM, first compound 0.316 µM",111%
same,"viability, T/C","second compound 0.00316 µM, first compound 1 µM",86.3%
same,"viability, T/C","second compound 0.00316 µM, first compound 3.16 µM",105%
same,"viability, T/C","second compound 0.00316 µM, first compound 10 µM",68.7%
same,"viability, T/C","second compound 0.01 µM, first compound 0.0316 µM",96.2%
same,"viability, T/C","second compound 0.01 µM, first compound 0.1 µM",97.9%
same,"viability, T/C","second compound 0.01 µM, first compound 0.316 µM",87.5%
same,"viability, T/C","second compound 0.01 µM, first compound 1 µM",104%
same,"viability, T/C","second compound 0.01 µM, first compound 3.16 µM",86%
same,"viability, T/C","second compound 0.01 µM, first compound 10 µM",67.3%
same,"viability, T/C","second compound 0.0316 µM, first compound 0.0316 µM",98.6%
same,"viability, T/C","second compound 0.0316 µM, first compound 0.1 µM",85.8%
same,"viability, T/C","second compound 0.0316 µM, first compound 0.316 µM",82.5%
same,"viability, T/C","second compound 0.0316 µM, first compound 1 µM",93.5%
same,"viability, T/C","second compound 0.0316 µM, first compound 3.16 µM",79.8%
same,"viability, T/C","second compound 0.0316 µM, first compound 10 µM",64%
same,"viability, T/C","second compound 0.1 µM, first compound 0.0316 µM",91.8%
same,"viability, T/C","second compound 0.1 µM, first compound 0.1 µM",80.7%
same,"viability, T/C","second compound 0.1 µM, first compound 0.316 µM",78%
same,"viability, T/C","second compound 0.1 µM, first compound 1 µM",85%
same,"viability, T/C","second compound 0.1 µM, first compound 3.16 µM",70.6%
same,"viability, T/C","second compound 0.1 µM, first compound 10 µM",66.7%
same,"viability, T/C","second compound 0.316 µM, first compound 0.0316 µM",67%
same,"viability, T/C","second compound 0.316 µM, first compound 0.1 µM",72.3%
same,"viability, T/C","second compound 0.316 µM, first compound 0.316 µM",63.7%
same,"viability, T/C","second compound 0.316 µM, first compound 1 µM",62%
same,"viability, T/C","second compound 0.316 µM, first compound 3.16 µM",66.8%
same,"viability, T/C","second compound 0.316 µM, first compound 10 µM",59.4%
same,"viability, T/C","second compound 1 µM, first compound 0.0316 µM",63.2%
same,"viability, T/C","second compound 1 µM, first compound 0.1 µM",61.9%
same,"viability, T/C","second compound 1 µM, first compound 0.316 µM",58.8%
same,"viability, T/C","second compound 1 µM, first compound 1 µM",57.3%
same,"viability, T/C","second compound 1 µM, first compound 3.16 µM",62.4%
same,"viability, T/C","second compound 1 µM, first compound 10 µM",39.5%
